Data published in article PMC4047469 (Molecular & Cellular Proteomics : MCP, 2014).

Key:
DDR2 = biological target: T1, DDR2 (Homo sapiens, UniProt Q16832); assay: autophosphorylation immunoblot; assay type: cell-based; conditions: 293T cells, collagen I 20 μg/ml, 120 min; E-3810 2, 8, 32 μM
T1 sequence (Q16832 22-855): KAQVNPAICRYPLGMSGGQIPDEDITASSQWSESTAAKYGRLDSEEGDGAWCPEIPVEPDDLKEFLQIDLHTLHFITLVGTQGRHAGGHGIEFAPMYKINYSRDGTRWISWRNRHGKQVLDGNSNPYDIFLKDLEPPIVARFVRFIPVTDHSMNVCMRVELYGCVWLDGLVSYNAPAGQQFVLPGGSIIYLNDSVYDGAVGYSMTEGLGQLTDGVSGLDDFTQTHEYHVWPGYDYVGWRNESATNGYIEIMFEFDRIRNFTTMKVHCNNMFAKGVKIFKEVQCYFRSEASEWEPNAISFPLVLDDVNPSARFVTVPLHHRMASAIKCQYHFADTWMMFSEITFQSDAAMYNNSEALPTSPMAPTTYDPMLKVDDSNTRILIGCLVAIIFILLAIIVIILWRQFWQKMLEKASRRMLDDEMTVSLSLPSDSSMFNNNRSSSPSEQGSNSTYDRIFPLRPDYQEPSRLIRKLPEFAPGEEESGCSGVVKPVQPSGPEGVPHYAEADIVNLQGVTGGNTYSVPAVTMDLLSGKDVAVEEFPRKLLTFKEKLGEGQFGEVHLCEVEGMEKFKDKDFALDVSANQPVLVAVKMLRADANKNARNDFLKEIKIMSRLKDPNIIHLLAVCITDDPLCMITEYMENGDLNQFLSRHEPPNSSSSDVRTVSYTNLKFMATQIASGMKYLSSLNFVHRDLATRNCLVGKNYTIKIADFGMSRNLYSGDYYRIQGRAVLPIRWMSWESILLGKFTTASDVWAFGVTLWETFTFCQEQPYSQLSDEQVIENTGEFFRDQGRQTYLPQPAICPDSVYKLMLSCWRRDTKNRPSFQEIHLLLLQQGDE

FGFR2 = FGFR2 (Homo sapiens, UniProt P21802); assay: in vitro kinase assay; assay type: biochemical
SRC = SRC (Homo sapiens, UniProt P12931); assay: radiometric filter-binding kinase assay; assay type: biochemical
Chain of SRC (P12931 2-536): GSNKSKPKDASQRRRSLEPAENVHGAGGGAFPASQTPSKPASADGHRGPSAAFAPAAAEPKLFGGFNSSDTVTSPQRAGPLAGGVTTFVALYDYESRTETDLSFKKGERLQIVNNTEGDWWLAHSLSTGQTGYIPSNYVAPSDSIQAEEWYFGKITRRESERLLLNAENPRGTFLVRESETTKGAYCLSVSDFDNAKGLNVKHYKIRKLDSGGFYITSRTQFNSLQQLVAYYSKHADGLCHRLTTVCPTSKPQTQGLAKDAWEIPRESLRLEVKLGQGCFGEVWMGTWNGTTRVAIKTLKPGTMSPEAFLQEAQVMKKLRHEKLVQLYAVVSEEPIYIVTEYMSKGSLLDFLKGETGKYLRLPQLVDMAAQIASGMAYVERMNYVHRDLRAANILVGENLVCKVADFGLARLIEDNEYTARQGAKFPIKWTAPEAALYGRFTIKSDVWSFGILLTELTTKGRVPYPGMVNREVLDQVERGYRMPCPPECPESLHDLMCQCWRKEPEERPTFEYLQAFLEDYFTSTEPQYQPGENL

Chain of FGFR2 (P21802 22-821): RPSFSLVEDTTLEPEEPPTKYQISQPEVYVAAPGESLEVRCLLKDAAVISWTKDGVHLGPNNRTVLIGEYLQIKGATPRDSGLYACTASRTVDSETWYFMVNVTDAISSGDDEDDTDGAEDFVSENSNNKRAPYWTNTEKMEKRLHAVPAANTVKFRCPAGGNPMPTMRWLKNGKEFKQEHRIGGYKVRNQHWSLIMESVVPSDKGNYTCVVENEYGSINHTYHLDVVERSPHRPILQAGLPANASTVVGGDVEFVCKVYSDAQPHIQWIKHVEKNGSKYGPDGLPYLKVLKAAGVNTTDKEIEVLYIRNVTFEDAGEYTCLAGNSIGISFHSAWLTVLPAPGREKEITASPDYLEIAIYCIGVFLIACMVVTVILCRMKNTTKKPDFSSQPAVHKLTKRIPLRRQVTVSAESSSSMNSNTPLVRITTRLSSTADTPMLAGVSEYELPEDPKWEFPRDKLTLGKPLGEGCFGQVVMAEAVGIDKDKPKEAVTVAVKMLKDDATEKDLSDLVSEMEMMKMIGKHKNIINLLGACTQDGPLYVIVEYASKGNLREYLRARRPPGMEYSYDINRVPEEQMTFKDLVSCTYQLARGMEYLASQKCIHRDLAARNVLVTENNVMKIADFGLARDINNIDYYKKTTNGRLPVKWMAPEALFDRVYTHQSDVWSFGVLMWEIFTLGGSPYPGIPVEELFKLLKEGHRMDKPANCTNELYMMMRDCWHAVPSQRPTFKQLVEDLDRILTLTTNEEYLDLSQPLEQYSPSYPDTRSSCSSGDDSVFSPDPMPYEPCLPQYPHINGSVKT

SMILES: CNC(=O)c1cccc2cc(Oc3ccnc4cc(OCC5(N)CC5)c(OC)cc34)ccc12 [compound 1, E-3810]
- autophosphorylation immunoblot (DDR2): increasing concentrations of E-3810 resulted in the reduction of DDR2 autophosphorylation
- IC50 (FGFR2): 77 nM
- Ki (SRC): > 50000 nM
